# Laboratory results as given in US7718767B2, “3-ether and 3-thioether substituted cyclosporin derivatives for the treatment and prevention of hepatitis C infection” (Scynexis, Inc., priority 2006, dated 2010).
# Key:
# [1] = tested on: HCV RNA replicon ET; test: HCV RNA replicon luciferase reporter assay, antiviral activity; assay type: cell-based; conditions: ET replicon cells, 72 h, LUC activity; for EC50: concentration reducing viral replication by 50%; for EC90: concentration reducing viral replication by 90%
# [2] = tested on: human hepatoma cell line ET; test: Cytotoxicity in the replicon cell line, colorimetric assay of cell numbers; conditions: ET cells, 72 h; for IC50: read-out: Cytotoxicity IC50, concentration inhibiting cell viability by 50%; for IC90: read-out: Cytotoxicity IC90, concentration inhibiting cell viability by 90%
# From the text: Compounds were examined in the human hepatoma cell line ET (lub ubi heo/ET), a HCV RNA replicon containing a stable luciferase (LUC) reporter. The HCV RNA replicon ET contains the 5′ end of HCV (with the HCV Internal Ribosome Entry Site (IRES) and the first few amino acids of the HCV core protein) which drives the production of a firefly luciferase (LUC), ubiquitin, and neomycin phosphotransferase (NeoR) fusion protein. Ubiquitin cleavage releases the LUC and NeoR proteins. The EMCV IRES element controls the translation of the HCV […] NS3-NS5. The NS3 protein cleaves the HCV polyprotein to release the mature NS3, NS4A, NS4B, NS5A and NS5B proteins that are required for HCV replication. At the 3′ end of the replicon is the authentic 3′ NTR of HCV. The activity of the LUC reporter is directly proportional to HCV replication levels and positive-control antiviral compounds produce a reproducible antiviral response using the LUC endpoint.
# The compounds were dissolved in DMSO at five half-log concentrations each, ranging from either 0.02 to 2.0 μM, 0.03 to 3 μM, […], or 1 to 100 μM. Subconfluent cultures of the ET line were plated out into 96 well plates dedicated for the analysis of cell numbers (cytotoxicity) or antiviral activity and the next day the compounds were added to the appropriate wells. The cells were processed 72 h later when the cells were still subconfluent. […] The activity of the LUC reporter is directly proportional to HCV RNA levels in the human cell line. The HCV-replicon assay was validated in parallel experiments using interferon-alpha-2b as a positive control.
# [3] = tested on: HIV-1IIIB; test: HIV MTS cytoprotection assay in CEM-SS cells; assay type: cell-based, human immunodeficiency virus-1; conditions: 6 days post-infection, concentration inhibiting virus replication by 50%
# [4] = tested on: CEM-SS cells; test: Compound cytotoxicity in the HIV MTS assay (cells plus drug only); assay type: cell-based, human; conditions: 50% inhibition of cell growth
# Description: In this MTS cytoprotection assay, each experiment included cell control wells (cells only), virus control wells (cells plus virus), drug toxicity wells (cells plus drug only), drug colorimetric control wells (drug only) as well as experimental wells (drug plus cells plus virus). […] HIV-1RF was added to each well in a volume of 50 μL, the amount of virus determined to give approximately 90% cell killing at 6 days post-infection. At assay termination, assay plates were stained with the soluble tetrazolium-based dye MTS (CellTiter 96 Reagent, Promega) to determine cell viability and quantify compound toxicity. MTS is metabolized by the mitochondria enzymes of metabolically active cells to yield a soluble formazan product, providing a quantitative analysis of cell viability and compound cytotoxicity. The assay was validated in parallel experiments using Zidovudine (3′-azido-3′-deoxythymidine or AZT) as a positive control.
Compound,EC50 [1] [µM],EC90 [1] [µM],IC50 [2] [µM],IC90 [2] [µM],EC50 [3] [µM],IC50 [4] [µM]
"C/C=C/C[C@@H](C)[C@@H](O)[C@H]1C(=O)N[C@@H](CC)C(=O)N(C)C(OCCOC)C(=O)N(C)[C@@H](CC(C)(C)O)C(=O)N[C@@H](C(C)C)C(=O)N(C)[C@@H](CC(C)C)C(=O)N[C@@H](C)C(=O)N[C@H](C)C(=O)N(C)[C@@H](CC(C)C)C(=O)N(C)[C@@H](CC(C)C)C(=O)N(C)[C@@H](C(C)C)C(=O)N1C (stereo partly drawn) [X, 3-[2-(methoxy)ethoxy]-4-(gamma-hydroxymethylleucine)cyclosporin]",0.48,1.5,> 2,> 2,1,> 20
"C/C=C/C[C@@H](C)[C@@H](O)[C@H]1C(=O)N[C@@H](CC)C(=O)N(C)[C@H](OCCN2CCOCC2)C(=O)N(C)[C@@H](CC(C)C)C(=O)N[C@@H](C(C)C)C(=O)N(C)[C@@H](CC(C)C)C(=O)N[C@@H](C)C(=O)N[C@H](C)C(=O)N(C)[C@@H](CC(C)C)C(=O)N(C)[C@@H](CC(C)C)C(=O)N(C)[C@@H](C(C)C)C(=O)N1C [Compound L, 3-[2-(N-morpholine)ethoxy)cyclosporin]",0.28,1.25,11.5,> 20,1.93,19.5
"C/C=C/C[C@@H](C)[C@@H](O)[C@H]1C(=O)N[C@@H](CC)C(=O)N(C)C(SCC)C(=O)N(C)[C@@H](CC(C)C)C(=O)N[C@@H](C(C)C)C(=O)N(C)[C@@H](CC(C)C)C(=O)N[C@@H](C)C(=O)N[C@H](C)C(=O)N(C)[C@@H](CC(C)C)C(=O)N(C)[C@@H](CC(C)C)C(=O)N(C)[C@@H](C(C)C)C(=O)N1C (stereo partly drawn) [P, 3-ethylthiocyclosporin]",0.23,0.58,6.15,> 20,0.16,6.15
"C/C=C/C[C@@H](C)[C@@H](O)[C@H]1C(=O)N[C@@H](CC)C(=O)N(C)[C@H](OCCCOC)C(=O)N(C)[C@@H](CC(C)(C)O)C(=O)N[C@@H](C(C)C)C(=O)N(C)[C@@H](CC(C)C)C(=O)N[C@@H](C)C(=O)N[C@H](C)C(=O)N(C)[C@@H](CC(C)C)C(=O)N(C)[C@@H](CC(C)C)C(=O)N(C)[C@@H](C(C)C)C(=O)N1C [Y, 3-[3-(methoxy)propoxy]-4-(gamma-hydroxymethylleucine)cyclosporin]",0.3,0.95,> 2,> 2,0.52,> 20
"C=CCO[C@@H]1C(=O)N(C)[C@@H](CC(C)(C)O)C(=O)N[C@@H](C(C)C)C(=O)N(C)[C@@H](CC(C)C)C(=O)N[C@@H](C)C(=O)N[C@H](C)C(=O)N(C)[C@@H](CC(C)C)C(=O)N(C)[C@@H](CC(C)C)C(=O)N(C)[C@@H](C(C)C)C(=O)N(C)[C@@H]([C@H](O)[C@H](C)C/C=C/C)C(=O)N[C@@H](CC)C(=O)N1C [U, 3-(prop-2-ene-1-oxy)-4-(gamma-hydroxymethylleucine)cyclosporin]",0.09,0.45,> 2,> 2,0.11,13.4
